Laboratory results from ChEMBL document CHEMBL1146848, “The development of novel 1,2-dihydro-pyrimido[4,5-c]pyridazine based inhibitors of lymphocyte specific kinase (Lck)” (Bioorg Med Chem Lett, 2006).
Values after ≈ are worked out from the molar mass of the structure shown.

Key:
[1] = Aqueous solubility of the compound; assay type: physicochemical; details: buffer
[2] = biological target: Tyrosine-protein kinase Lck (Homo sapiens, UniProt P06239); assay: Inhibition of human recombinant Lck in presence of 10 mM ATP
Tyrosine-protein kinase Lck, sequence (P06239 whole entry): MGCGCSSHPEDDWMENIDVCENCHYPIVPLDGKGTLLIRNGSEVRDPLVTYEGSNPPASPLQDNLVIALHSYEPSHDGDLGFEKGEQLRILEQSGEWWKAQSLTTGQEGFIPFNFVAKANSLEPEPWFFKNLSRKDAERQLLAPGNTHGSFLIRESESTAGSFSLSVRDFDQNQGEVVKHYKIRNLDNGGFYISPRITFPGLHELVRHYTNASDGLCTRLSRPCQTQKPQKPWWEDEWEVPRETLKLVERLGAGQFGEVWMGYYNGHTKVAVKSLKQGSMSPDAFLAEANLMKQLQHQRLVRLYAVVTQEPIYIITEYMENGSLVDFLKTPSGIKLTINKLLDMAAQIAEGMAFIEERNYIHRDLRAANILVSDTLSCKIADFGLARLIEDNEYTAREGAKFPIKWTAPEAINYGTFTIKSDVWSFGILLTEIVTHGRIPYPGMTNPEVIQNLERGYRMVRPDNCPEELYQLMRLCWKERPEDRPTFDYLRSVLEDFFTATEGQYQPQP

[3] = biological target: Proto-oncogene tyrosine-protein kinase Src (Homo sapiens, UniProt P12931); assay: Inhibition of human recombinant Src in presence of 10 mM ATP
Proto-oncogene tyrosine-protein kinase Src, sequence (P12931 2-536 limits assumed): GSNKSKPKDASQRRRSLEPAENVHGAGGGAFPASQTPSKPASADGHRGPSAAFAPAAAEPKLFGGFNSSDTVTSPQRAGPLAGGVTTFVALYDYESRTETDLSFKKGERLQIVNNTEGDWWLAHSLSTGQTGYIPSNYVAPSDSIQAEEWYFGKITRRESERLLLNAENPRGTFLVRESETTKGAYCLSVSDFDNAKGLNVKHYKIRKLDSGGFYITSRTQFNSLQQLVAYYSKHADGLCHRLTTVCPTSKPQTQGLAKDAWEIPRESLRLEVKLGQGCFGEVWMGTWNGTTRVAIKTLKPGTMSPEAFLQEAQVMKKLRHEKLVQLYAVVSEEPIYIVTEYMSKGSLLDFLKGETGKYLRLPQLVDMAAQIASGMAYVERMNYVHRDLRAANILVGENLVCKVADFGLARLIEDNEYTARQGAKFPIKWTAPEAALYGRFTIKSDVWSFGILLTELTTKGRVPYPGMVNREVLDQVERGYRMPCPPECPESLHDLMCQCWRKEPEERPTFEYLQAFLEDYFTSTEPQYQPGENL

[4] = biological target: Tyrosine-protein kinase HCK (Homo sapiens, UniProt P08631); assay: Inhibition of human recombinant Hck in presence of 10 mM ATP
Tyrosine-protein kinase HCK, sequence (P08631 whole entry): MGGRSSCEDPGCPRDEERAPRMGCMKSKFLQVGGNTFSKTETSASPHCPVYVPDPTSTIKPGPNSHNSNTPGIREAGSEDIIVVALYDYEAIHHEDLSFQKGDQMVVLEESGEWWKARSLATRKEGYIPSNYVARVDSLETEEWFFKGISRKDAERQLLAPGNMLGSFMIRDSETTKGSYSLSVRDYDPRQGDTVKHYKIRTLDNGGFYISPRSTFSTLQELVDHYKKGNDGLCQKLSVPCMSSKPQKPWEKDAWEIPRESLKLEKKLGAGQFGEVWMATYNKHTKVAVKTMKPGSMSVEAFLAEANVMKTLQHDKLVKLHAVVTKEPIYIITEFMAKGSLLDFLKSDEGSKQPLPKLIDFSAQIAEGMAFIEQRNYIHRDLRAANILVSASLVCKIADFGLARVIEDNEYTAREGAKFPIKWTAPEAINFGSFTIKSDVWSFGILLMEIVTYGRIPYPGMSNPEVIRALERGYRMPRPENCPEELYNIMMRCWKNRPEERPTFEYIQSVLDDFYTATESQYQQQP

Jurkat = assay: Inhibition of anti-human CD3 epsilon-stimulated IL2 production in Jurkat E6-1 T cells; assay type: functional, cell-based
[5] = Bioavailability in rat; assay type: ADME, organism-based; details: in vivo
[6] = Metabolic stability in Sprague-Dawley rat liver microsome after 1 hr; assay type: ADME; details: liver microsomes, read-out: Stability
[7] = Half life in rat; assay type: ADME, organism-based; details: in vivo

Work on `COc1ccc(Cl)c(C2=Cc3cnc(Nc4ccc(F)cc4)nc3N3CCC(=O)N23)c1` yielded a solubility [1] of 7 µg/mL (≈ 16 µM) and an IC50 ([2]; read-out: IC50) of 4.8 µM.

For `COC(=O)c1ccc(Nc2ncc3c(n2)N2CCC(=O)N2C(c2c(Cl)cccc2Cl)=C3)cc1`, the IC50 ([2]; read-out: IC50) was 0.143 µM.

Compound `CN(C)c1ccc(Nc2ncc3c(n2)N2CCC(=O)N2C(c2cc(O)ccc2Cl)=C3)cc1` has an IC50 [3] of 0.273 µM, an IC50 [4] of 0.546 µM and a solubility [1] of 1 µg/mL (≈ 2.23 µM). For the same compound, the IC50 (Jurkat) was 0.000546 µM and the IC50 ([2]; read-out: IC50) was 0.01 µM.

In the case of `CN1C(c2c(Cl)cccc2Cl)=Cc2cnc(Nc3ccc(F)cc3)nc2N1C`, the IC50 ([2]; read-out: IC50) is reported as 3.2 µM.

Work on `COc1ccccc1Nc1ncc2c(n1)N1CCC(=O)N1C(c1c(Cl)cccc1Cl)=C2` yielded an IC50 ([2]; read-out: IC50) of 7.27 µM.

For `O=C1CCN2c3nc(Nc4ccccc4)ncc3C=C(c3c(Cl)cccc3Cl)N12`, the solubility [1] was 2 µg/mL (≈ 4.71 µM) and the IC50 ([2]; read-out: IC50) was 0.182 µM.

Work on `CCN(CC)c1ccc(Nc2ncc3c(n2)N2CCC(=O)N2C(c2c(Cl)cccc2Cl)=C3)cc1` yielded a solubility [1] of 1 µg/mL (≈ 2.02 µM) and an IC50 ([2]; read-out: IC50) of 0.043 µM.

For `CN1CCN(c2ccc(Nc3ncc4c(n3)N3CCC(=O)N3C(c3cc(O)ccc3Cl)=C4)cc2)CC1`, the IC50 [3] was 0.764 µM, the IC50 [4] was 0.456 µM and the solubility [1] was 11 µg/mL (≈ 21.8 µM). The IC50 (Jurkat) was 0.0021 µM and the IC50 ([2]; read-out: IC50) was 0.047 µM.

Compound `O=C1CCN2c3nc(Nc4ccc(N5CCOCC5)cc4)ncc3C=C(c3c(Cl)cccc3Cl)N12` has an IC50 [3] of 0.104 µM, an IC50 [4] of 0.16 µM and a solubility [1] of 6 µg/mL (≈ 11.8 µM). The IC50 (Jurkat) was 0.002 µM and the IC50 ([2]; read-out: IC50) was 0.003 µM.

Work on `CNc1ncc2c(n1)N1CCC(=O)N1C(c1c(Cl)cccc1Cl)=C2` yielded an IC50 ([2]; read-out: IC50) of 2.81 µM.

Work on `CCOc1ccc(Nc2ncc3c(n2)N2CCC(=O)N2C(c2c(Cl)cccc2Cl)=C3)cc1` yielded an IC50 ([2]; read-out: IC50) of 0.285 µM.

In the case of `O=C1CCN2c3nc(Nc4ccc(F)cc4)ncc3C=C(c3c(Cl)cccc3Cl)N12`, the solubility [1] is reported as 2 µg/mL (≈ 4.52 µM) and the IC50 ([2]; read-out: IC50) is reported as 0.124 µM.

With `CN(C)c1ccc(Nc2ncc3c(n2)N2CCC(=O)N2C(c2c(Cl)cccc2Cl)=C3)cc1` the solubility [1] was 5 µg/mL (≈ 10.7 µM) and the IC50 ([2]; read-out: IC50) was 0.026 µM.

For `CN1C(c2ccccc2Cl)=Cc2cnc(Nc3ccc(F)cc3)nc2N1C`, the IC50 [2] was “Not Active”.

`COc1ccc(Cl)c(C2=Cc3cnc(Nc4ccc(N(C)C)cc4)nc3N3CCC(=O)N23)c1` gave a solubility [1] of 7 µg/mL (≈ 15.1 µM) and an IC50 ([2]; read-out: IC50) of 2.84 µM.

With `CCN(CC)CCOc1ccc(Nc2ncc3c(n2)N2CCC(=O)N2C(c2c(Cl)cccc2Cl)=C3)cc1` the IC50 [3] was 0.003 µM, the IC50 [4] was 0.048 µM and the solubility [1] was 33.8 µg/mL (≈ 62.7 µM). For the same compound, the IC50 (Jurkat) was 0.00321 µM, the bioavailability [5] was 14% and the remaining at 1 h [6] was over 84%. For the same compound, the half-life [7] was 1.5 h and the IC50 ([2]; read-out: IC50) was 0.002 µM.

In the case of `COc1cccc(Nc2ncc3c(n2)N2CCC(=O)N2C(c2c(Cl)cccc2Cl)=C3)c1`, the IC50 ([2]; read-out: IC50) is reported as 0.179 µM.

In the case of `COc1ccc(Nc2ncc3c(n2)N2CCC(=O)N2C(c2c(Cl)cccc2Cl)=C3)cc1`, the solubility [1] is reported as 5 µg/mL (≈ 11 µM) and the IC50 ([2]; read-out: IC50) is reported as 0.071 µM.

Compound `CN(C)CCc1ccc(Nc2ncc3c(n2)N2CCC(=O)N2C(c2c(Cl)cccc2Cl)=C3)cc1` has a solubility [1] of 10 µg/mL (≈ 20.2 µM) and an IC50 ([2]; read-out: IC50) of 0.021 µM.
